Where “and” joins values, the source holds several entries; their conditions need not be identical. Identical values can stand only once. Like-named read-outs stand apart in the source and are kept apart here.
System: expanded OPCs
Experiment: cells
Settings: for viability at 0.1 µM / viability at 1 µM / viability at 10 µM: Rattus norvegicus, 72 h
Procedure: Having established a consistent assay for measuring OL differentiation in vitro, the next step was to utilize this assay to assess the ability of a wide array of compounds to promote OL differentiation. Prior to library screening, we first established the maximum non-toxic dose of each compound in the library. […] Therefore, we added each compound in the NIH clinical collection (NCC) library to OPCs at 10, 1, and 0.1 µM concentrations. Three days later, we assessed viability of the treated cells by measuring AlamarBlue fluorescence, a measure of cell viability (see “Methods” section). […] Appropriately, we established three sets of screening concentrations for library compounds: non-toxic compounds were tested at 10 and 2 µM, slightly toxic compounds (only toxic at 10 µM) were tested at 2 and 0.4 µM, and very toxic compounds were tested at 0.4 and 0.08 µM.
OPCs were expanded in vitro by seeding into PDL-coated tissue culture flasks at 1000–2000 cells/cm^2 in differentiation media supplemented with 10 ng/ml PDGF-AA. Proliferating OPCs were fed every 2–3 days and supplemented with 2–3× concentration of PDGF as needed to prevent OPC differentiation. After 6–7 days of proliferation, OPCs were harvested by trypsinization, plated into PDL-coated 96-well Falcon plates and centrifuged at 200×g to facilitate cell attachment, survival, and even distribution of cells. Expanded OPCs were seeded in differentiation media at 10,000 cells/well and incubated for 2 h at 37 °C, 10 % CO2 prior to addition of compounds. The NCC library was diluted and added to cells at 10, 1, and 0.1 µM; each concentration was tested in quadruplicate. As a positive control for the induction of toxicity, 5 ng/ml tunicamycin was added to 8 wells in each plate. Three days later, a 1:10 dilution of alamarBlue® (AB) was added to each well and cells were incubated 4 h at 37 °C, 10 % CO2. AB fluorescence was measured using a PerkinElmer Victor II fluorescence microplate reader (PerkinElmer, Waltham, MA) with 560 nm excitation/590 nm emission filters. For library screening, the highest concentration of each compound was adjusted to a minimally toxic concentration based on this toxicity data. Compounds were additionally tested at a second concentration that was 1/5th of the top concentration. The final concentration of DMSO in each well was 0.1 %.

[1] = alamarBlue viability of expanded OPCs, compound at 0.1 µM, relative to DMSO control
[2] = alamarBlue viability of expanded OPCs, compound at 1 µM, relative to DMSO control
[3] = alamarBlue viability of expanded OPCs, compound at 10 µM, relative to DMSO control
[4] = read-out: 0.1 µM (% DMSO), alamarBlue viability of expanded OPCs, compound at 0.1 µM, sheet All Tox data
[5] = read-out: 1 µM (% DMSO), alamarBlue viability of expanded OPCs, compound at 1 µM, sheet All Tox data
[6] = read-out: 10 µM (% DMSO), alamarBlue viability of expanded OPCs, compound at 10 µM, sheet All Tox data
[7] = read-out: 0.1 µM (% DMSO), alamarBlue viability, NCC library compound at 0.1 µM, sheet "All Tox data"
[8] = read-out: 1 µM (% DMSO), alamarBlue viability, NCC library compound at 1 µM, sheet "All Tox data"
[9] = read-out: 10 µM (% DMSO), alamarBlue viability, NCC library compound at 10 µM, sheet "All Tox data"

## Cc1ccccc1C(OCCN(C)C)c1ccccc1 (stereo not drawn) [Orphenadrine]
[1]
  0.1 µM (% DMSO): 86.1 % DMSO and 95.1 % DMSO
[2]
  1 µM (% DMSO): 67.2 % DMSO and 74.3 % DMSO
[3]
  10 µM (% DMSO): 47.8 % DMSO and 50.8 % DMSO

## COc1cc([C@@H]2c3cc4c(cc3[C@H](O)[C@H]3COC(=O)[C@H]23)OCO4)cc(OC)c1OC [Podophyllotoxin]
[1]
  0.1 µM (% DMSO): 14.8 % DMSO
[2]
  1 µM (% DMSO): 10.6 % DMSO
[3]
  10 µM (% DMSO): 9.1 % DMSO

## CCCN[C@H]1CCc2nc(N)sc2C1 [Pramipexole]
[4]
  viability at 0.1 µM: 88.8%
[5]
  viability at 1 µM: 92.5%
[6]
  viability at 10 µM: 96%

## COc1cc2nc(N3CCN(C(=O)c4ccco4)CC3)nc(N)c2cc1OC [Prazosin]
[4]
  viability at 0.1 µM: 80.9%
[5]
  viability at 1 µM: 87.6%
[6]
  viability at 10 µM: 13.1%

## CC(C)CC(N(C)C)C1(c2ccc(Cl)cc2)CCC1 (stereo not drawn) [Sibutramine]
[7]
  viability at 0.1 µM: 88.3%
[8]
  viability at 1 µM: 84%
[9]
  viability at 10 µM: 84.4%

## Cc1cc(NS(=O)(=O)c2ccc(N)cc2)no1 [Sulfamethoxazole]
[7]
  viability at 0.1 µM: 90.6%
[8]
  viability at 1 µM: 96.3%
[9]
  viability at 10 µM: 96.5%

## C[C@]12CC[C@H]3[C@@H](CCC4=CC(=O)CC[C@@]43C)[C@@H]1CC[C@@H]2O [Testosterone]
read-out: 0.1 µM (% DMSO)
  viability at 0.1 µM: 88.4%
read-out: 1 µM (% DMSO)
  viability at 1 µM: 87.4%
read-out: 10 µM (% DMSO)
  viability at 10 µM: 86.2%
rat
  0.1 µM (% DMSO): 87.3 % DMSO
  1 µM (% DMSO): 87.6 % DMSO
  10 µM (% DMSO): 84.8 % DMSO

## Clc1ccccc1CN1CCc2sccc2C1 [Ticlopidine]
[4]
  viability at 0.1 µM: 107%
[5]
  viability at 1 µM: 103%
[6]
  viability at 10 µM: 90.3%

## COc1ccc(CCN(C)CCCC(C#N)(c2ccc(OC)c(OC)c2)C(C)C)cc1OC (stereo not drawn) [Verapamil]
read-out: 0.1 µM (% DMSO)
  viability at 0.1 µM: 84.5%
read-out: 1 µM (% DMSO)
  viability at 1 µM: 92.8%
read-out: 10 µM (% DMSO)
  viability at 10 µM: 43%

## CC[C@]1(O)C[C@H]2CN(CCc3c([nH]c4ccccc34)[C@@](C(=O)OC)(c3cc4c(cc3OC)N(C=O)[C@H]3[C@@](O)(C(=O)OC)[C@H](OC(C)=O)[C@]5(CC)C=CCN6CC[C@]43[C@@H]65)C2)C1 [Vincristine]
[7]
  viability at 0.1 µM: 17.4%
[8]
  viability at 1 µM: 11.1%
[9]
  viability at 10 µM: 9%

## Medroxyprogesterone
alamarBlue viability, NCC library compound at 0.1 µM, sheet "All Tox data"
  0.1 µM (% DMSO): 117.3 % DMSO
alamarBlue viability, NCC library compound at 1 µM, sheet "All Tox data"
  1 µM (% DMSO): 126.7 % DMSO
alamarBlue viability, NCC library compound at 10 µM, sheet "All Tox data"
  10 µM (% DMSO): 141.4 % DMSO
